The values below come from patent US20250171404A1, “PCNA INHIBITORS AND USES THEREOF” (CITY OF HOPE, priority 2022, published 2025).

For one data set, the system named is OVCAR8. As to the kind of experiment: Cell growth IC50, screening of AOH1160 analogs. The class given is cell-based. The note with it: Homo sapiens, OVCAR-8; OVCAR8; read-out: IC50 values. As to the method: (§1) FIG. 29. IC50 data for select compounds. The indicated cell lines were seeded at 10^4 cells per well in a 96 well plate. After allowing to attach to the plate overnight, cells were treated with various concentrations of the indicated compounds in triplicates for 72 hrs. The cell growth was measured by an SRB assay. The cell abundances under each treatment condition relative to the baseline were averaged and graphed ±S.D. The baseline is defined as the median value of the cell abundances under the treatment by the two lowest compound concentrations. The IC50 was calculated by the Prism program.

A further data set deals with MDA-MB-231. The experiment in a line: Cell growth IC50, screening of AOH1160 analogs. The class given is cell-based. The settings on record: Homo sapiens. Here is the method:
as §1

Another data set has as its target T1, PCNA (Homo sapiens, UniProt P12004).
T1 construct: made in house; host or cells: E. coli Rosetta 2 (DE3)
The experiment in a line: Thermal denaturation (thermal shift) assay. The class given is binding. The note with it: 9 μM PCNA; 10 or 30 μM compound; dose dependent. As to the method: FIGS. 1A-1E. AOH1160 analog interactions with PCNA. FIG. 1A: Thermal shift assay: Normalized inverse derivative thermal denaturation plots of 9 μM apo-PCNA with DMSO control is depicted with a black dashed line and PCNA in the presence of 10 μM AOH1160LE is shown in light grey and 30 μM AOH1160LE in dark grey. ΔTm values are provided. FIG. 1B: As described in FIG. 1A, in the presence of 10 μM AOH1996 depicted in light grey and 30 μM AOH1996 depicted in dark grey. FIG. 1C: Four monomers (chains A-D) of PCNA are present in the asymmetric unit of the crystal. Chains A, B, and C form the homotrimer biological unit, while chain Dis orientated perpendicular to the plane of the ring, below the interface of chains B and C and it belongs to an adjacent ring. Inset: Three molecules of AOH1160LE bind in and adjacent to the PIP box cavity of each of the PCNA ring subunits. The omit map, gray mesh, is contoured to 1.56. Two PCNA monomer subunits from adjacent rings stack against each other, placing the PIP box and IDCLs of each subunit in opposing directions. FIG. 1D: The three AOH1160LE molecules are shown as stick figure representations. Two of the compounds, left and central, bind into the PIP box cavity at known PCNA-partner/compound interaction sites. […] The electrostatic surface maps are depicted with Poisson-Boltzmann electrostatic surface potentials shown in dark grey and light grey, corresponding to −10 to +10 kT/e respectively.
Targeting the PIP box and APIM binding domain of PCNA. AOH1160, a small molecule PCNA ligand, targets the cancer-distinct L126-Y133 region of PCNA (Malkas et al., 2006) and is selectively toxic to cancer cells (Gu et al., 2018). […]
Thermal denaturation assay for PCNA-AOH1996 interaction. […] Fluorescence intensity was measured within the excitation/emission ranges 470-505/540-700 nm.

Data set [1] can be described thus: Cell growth IC50, screening of AOH1160 analogs (cell line not given). The class given is cell-based. Here is the method: as §1
A short description of data set [2]: Solubility in aqueous buffer with 10% DMSO. In kind it is physicochemical. The settings on record: pH 7.4, aqueous with cosolvent or surfactant or cyclodextrin, read-out: soluble at concentration. As to the method: AOH1160LE was soluble at a 4 mM concentration in aqueous buffer with 10% DMSO, which enabled co-crystallization studies on this analog. A PCNA:AOH1160LE co-crystal diffracted to 2.85 Å resolution at the synchrotron source, and phasing was provided by molecular replacement. Four PCNA subunits were present in the asymmetric unit, with three, chains A, B, C belonging to the homotrimeric ring structure, and the fourth, chain D (FIG. 1C) forms part of an adjacent ring in the unit cell that consists solely of D chains. Packing within the unit cell also places each monomer subunit of the PCNA ring against a subunit from another ring; these two stacked subunits interact via their PIP box binding pockets and […] IDCLs that are orientated in directly opposing directions (FIG. 1D). Clearly observed within the electron density maps are three molecules of AOH1160LE, which bind in and adjacent to the PIP box cavity of each of the PCNA ring subunits, and these compounds have further interactions with the PIP box pocket of the stacked PCNA subunit (FIG. 1D).
Expression, purification and crystallization of PCNA. Human PCNA in a pET22b-hPCNA vector was transformed into E. coli Rosetta 2 (DE3) cells. PCNA expression was induced by 0.4 mM IPTG, OD600=0.6, and cells were grown for 5 hrs at 37° C. […]

A further data set relates to SK-N-BE(2)c. The experiment in a line: Cell growth IC50, screening of AOH1160 analogs. The class given is cell-based. The note with it: Homo sapiens. Here is the method: as §1
For a further data set, the system named is SK-N-AS. The experiment in a line: Cell growth IC50, screening of AOH1160 analogs. In kind it is cell-based. The settings on record: Homo sapiens, read-out: IC50 values. Here is the method:
as §1

The test system of another data set is SK-N-DZ. The experiment in a line: Cell growth IC50, screening of AOH1160 analogs. In kind it is cell-based. The note with it: Homo sapiens. Here is the method: as §1
For data set [3] the following is noted: oral, 40 mg/kg, mice (Gu et al., 2018); cited from earlier work.
The next data set has as its system MDA-MB-468. As to the kind of experiment: Cell growth IC50, screening of AOH1160 analogs. In kind it is cell-based. The note with it: Homo sapiens, MDA-MB-468; read-out: IC50 values. Here is the method: as §1
The test system of another data set is SK-N-FI. The experiment in a line: Cell growth IC50, screening of AOH1160 analogs. In kind it is cell-based. The note with it: Homo sapiens. Here is the method:
as §1

For the next data set, the system named is SH-SY5Y. The experiment in a line: Cell growth IC50, screening of AOH1160 analogs. The class given is cell-based. The note with it: Homo sapiens. Here is the method: as §1
A further data set relates to SK-MEL-5. As to the kind of experiment: Cell growth IC50, screening of AOH1160 analogs. The class given is cell-based. The settings on record: Homo sapiens. As to the method: as §1
In another data set the test system is SK-MEL-28. The experiment in a line: Cell growth IC50, screening of AOH1160 analogs. The class given is cell-based. The note with it: Homo sapiens. As to the method:
as §1

The next data set has as its system Hela. As to the kind of experiment: Cell growth IC50, screening of AOH1160 analogs. In kind it is cell-based. The settings on record: Homo sapiens, HeLa; read-out: IC50 values. As to the method: as §1

≈ marks a conversion by molar mass, not a printed value. Where two headings read alike, the source gives them in different places. Bounds are passed on as bounds.

T1 sequence (P12004 whole entry): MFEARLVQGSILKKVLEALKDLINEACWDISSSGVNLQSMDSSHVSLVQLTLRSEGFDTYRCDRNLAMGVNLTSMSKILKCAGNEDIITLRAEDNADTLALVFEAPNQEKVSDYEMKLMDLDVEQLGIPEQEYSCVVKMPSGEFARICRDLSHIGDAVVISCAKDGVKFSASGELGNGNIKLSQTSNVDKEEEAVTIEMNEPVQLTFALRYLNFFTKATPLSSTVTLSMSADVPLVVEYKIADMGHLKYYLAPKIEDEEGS

In general, IC50 refers to the concentration that gives 50% inhibition. Regarding `O=C(CNC(=O)c1cccc2ccccc12)Nc1ccccc1Sc1ccccc1F` [AOH1996S-2F, N-(2-((2-((2-fluorophenyl)thio)phenyl)amino)-2-oxoethyl)-1-naphthamide], the results for the IC50 in the data set with OVCAR8 and in the data set on MDA-MB-231 were 410 nM and 220 nM, respectively.
As for `O=C(O)CC[C@H](NC(=O)c1cccc2ccccc12)C(=O)Nc1ccccc1Oc1ccccc1` [AOH1160LE], the “shift of protein melting curves (ΔTm)” value at PCNA was ≤ 0.5 °C. Also, the IC50 in [1] (read-out: IC50 values) was > 10000 nM. The solubility in data set [2] was 4 mM (≈ 1870 µg/mL).
The half-life is how long it takes for the measured level to halve. In the case of `O=C(CNC(=O)c1cccc2ccccc12)Nc1ccccc1Oc1ccccc1` [AOH1160], the IC50 came out at 325 nM with SK-N-BE(2)c, 107 nM in the data set on SK-N-AS and 237 nM with SK-N-DZ. For the same molecule, the half-life in data set [3] was 3.4 h.
As for `C[C@H](NC(=O)c1cccc2ccccc12)C(=O)Nc1ccccc1Oc1ccccc1` [AOH1160LA, (S)—N-(1-oxo-1-((2-phenoxyphenyl)amino)propan-2-yl)-1-naphthamide], the IC50 was 4900 nM in the data set on MDA-MB-468; 3000 nM in the data set on SK-N-FI; 4000 nM in the data set on SH-SY5Y; ~3000 nM in data set [1] (FIG. 25, read-out: IC50).
Consider `O=C(CNC(=O)c1cccc2ccccc12)Nc1ccccc1Sc1ccccc1` [AOH1160S, N-(2-oxo-2-((2-(phenylthio)phenyl)amino)ethyl)-1-naphthamide], for which the IC50 turned out to be 610 nM with SK-MEL-5, 316 nM in the data set on MDA-MB-468, 340 nM in the data set with SK-MEL-28 and 290 nM in the data set on Hela.
